Reference: patent US20240216344A1, “THIAZOLIDINEDIONE ANALOGS FOR THE TREATMENT OF NAFLD AND METABOLIC DISEASES” (Cirius Therapeutics, Inc., priority 2019, published 2024)
Where two headings read alike, the source gives them in different places.

Key:
patients with NASH [1] = conditions: cited from earlier work
patients with NASH [2] = conditions: cited from earlier work; remark: listed apart in the source
MPC = target: T1, MPC (Homo sapiens, UniProt O95563+Q9Y5U8); experiment: Relative binding affinity for the MPC (FIG. 8)
T1 sequence (Q9Y5U8 1-109): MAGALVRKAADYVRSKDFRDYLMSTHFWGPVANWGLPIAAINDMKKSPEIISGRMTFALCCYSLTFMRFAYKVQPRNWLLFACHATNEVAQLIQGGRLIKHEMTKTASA
T1 sequence (O95563 1-127): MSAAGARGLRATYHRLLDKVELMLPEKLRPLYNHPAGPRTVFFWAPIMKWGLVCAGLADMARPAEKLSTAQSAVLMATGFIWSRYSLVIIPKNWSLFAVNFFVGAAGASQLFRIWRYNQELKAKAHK

PPARγ = target: T2, PPARγ (Homo sapiens, UniProt P37231); experiment: Relative binding affinity for PPARγ (FIG. 7)
T2 sequence (P37231 1-505): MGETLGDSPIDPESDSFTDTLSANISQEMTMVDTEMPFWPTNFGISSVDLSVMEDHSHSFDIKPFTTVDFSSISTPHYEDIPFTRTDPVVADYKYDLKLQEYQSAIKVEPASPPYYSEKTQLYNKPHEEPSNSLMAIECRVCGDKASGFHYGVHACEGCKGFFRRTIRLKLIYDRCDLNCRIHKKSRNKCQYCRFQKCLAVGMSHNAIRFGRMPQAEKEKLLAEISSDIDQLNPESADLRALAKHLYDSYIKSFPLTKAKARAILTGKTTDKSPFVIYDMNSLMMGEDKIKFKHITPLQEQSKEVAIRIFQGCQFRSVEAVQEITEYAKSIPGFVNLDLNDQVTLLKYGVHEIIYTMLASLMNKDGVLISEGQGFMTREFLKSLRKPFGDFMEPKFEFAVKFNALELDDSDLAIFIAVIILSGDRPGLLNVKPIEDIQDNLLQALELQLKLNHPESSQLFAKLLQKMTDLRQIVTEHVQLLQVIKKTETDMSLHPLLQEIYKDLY

[3] = Exposure of parent and metabolite; bioavailability of potassium salt vs free acid; conditions: in vivo
patients with NASH [4] = experiment: Meta-analysis of 17 NASH clinical trials: change from baseline in LFTs and biomarkers by study arm, composite outcome; type: in vivo, human; conditions: 17 NASH clinical trials
Method: Meta-regressions of NASH clinical trials were performed to examine associations between biomarker and histological changes within treatment groups, and to additionally examine associations between treatment effects on biomarkers and on liver histology. Trials that met the following criteria were included: • Randomized controlled clinical trial • Paired biopsies performed at baseline and follow-up, scored using the NASH CRN system.
• Published results at baseline, follow-up, or changes from baseline for any the following liver injury markers or biomarkers: alanine aminotransferase (ALT), aspartate aminotransferase (AST), alkaline phosphatase, hemoglobin A1c (HbA1c), gamma-glutamyltransferase (GGT), insulin, cytokeratin-18 (CK-18), or Enhanced Liver Fibrosis (ELF) score. Variables selected were based on variables whose change was commonly reported in multiple studies. • Changes in histological scores for ballooning, inflammation, steatosis, and fibrosis, or the pre-determined endpoints of NASH resolution without worsening fibrosis or improvement in fibrosis with no worsening of NASH.
All results from a search of PubMed for the keywords (“nonalcoholic steatohepatitis” or “non-alcoholic steatohepatitis”) and (“clinical trial” or “randomized”) and filtered for “Clinical Trial” were reviewed. EudraCT and ClinicalTrials.gov were searched for the keyword “nonalcoholic steatohepatitis” with results further filtered for phase 2 or 3, interventional, terminated or completed trials. These three sources returned 265 (PubMed), 153 (ClinicalTrials.gov), and 56 (EudraCT) results, which were each individually reviewed for inclusion in the analysis. Data extracted by one analyst from each source that included means and SDs at baseline, end of study, and changes from baseline to end of study for continuous variables were verified and corrected by a second analyst. Where SDs were not available, any provided estimate of variation was used to derive the SD where possible; a plot-digitizer program was used where data were presented in figures only. Data for dichotomous endpoints were extracted as the number of subjects with the event and corresponding sample size.
Random effects weighted least squares meta-regressions with inverse variance weighting were used to examine the association of changes in ALT, AST, CK-18, HbA1c, fasting insulin levels, ELF, alkaline phosphatase and GGT with biopsy outcomes. CK-18[M30] was measured in all studies except EMMINENCE where CK-18[M651 was reported. These associations were assessed at an individual cohort level (within treatment group), as well as based on the treatment effect. Percent change from baseline in liver injury makers and biomarkers was used as the predictor when examining the associations in the individual cohorts with outcomes while the treatment ratio, the ratio of active to placebo with respect to the relative changes from baseline, was used as the predictor when assessing the association with the treatment effect on outcomes. Standardized mean changes (mean/SD) or standardized mean treatment differences (mean difference/pooled SD) were used for continuous outcomes and Freeman-Tukey double arcsine transformed proportions or log odds ratios were used for dichotomous outcomes. Meta-regression results were computed using the metafor package available in R. P-values <0.05 were considered statistically significant.
From the meta-regression results, ranks for the association with responses and treatment effects for each histologic outcome (changes in ballooning, inflammation, steatosis, and fibrosis; NASH resolution without worsening of fibrosis, and fibrosis improvement without worsening of NAS) were assigned across seven biomarkers (AST, GGT, HbA1c, insulin, CK-18, ELF, and alkaline phosphatase) for both the slope and the mediator p-value (ranks 1-7, with 7 assigned to the biomarker with the greatest slope or lowest p-value). An average rank across all outcomes was then assigned to each biomarker. […]

[5] = GEORGESCU trial, Telmisartan 20 mg
[6] = GEORGESCU, 20 mg, follow-up 20 months
[7] = LEUSCHNER trial, UDCA 23-28 mg/kg/day
[8] = LEUSCHNER, 23-28 mg/kg/day, follow-up 18 months
[9] = GEORGESCU trial, Valsartan 80 mg
[10] = GEORGESCU, 80 mg, follow-up 20 months
[11] = PIVENS, Vitamin E arm, follow-up 22 months

CCCc1nc2c(C)cc(-c3nc4ccccc4n3C)cc2n1Cc1ccc(-c2ccccc2C(=O)O)cc1 [Telmisartan]
Change from Baseline, mean: Ballooning (patients with NASH [1]; [5]): −0.58
Change from Baseline, mean: Fibrosis (patients with NASH [1]; [5]): −0.75
Change from Baseline, mean: Inflammation (patients with NASH [1]; [5]): −0.36
Change from Baseline, mean: Steatosis (patients with NASH [1]; [5]): −0.50
% Change from Baseline ALT (patients with NASH [2]; [6]): −30.29%
% Change from Baseline AST (patients with NASH [2]; [6]): −34.64%
% Change from Baseline GGT (patients with NASH [2]; [6]): −2.83%

C[C@H](CCC(=O)O)[C@H]1CC[C@H]2[C@@H]3[C@@H](O)C[C@@H]4C[C@H](O)CC[C@]4(C)[C@H]3CC[C@]12C [UDCA]
Change from Baseline, mean: Ballooning (patients with NASH [1]; [7]): −0.16
Change from Baseline, mean: Inflammation (patients with NASH [1]; [7]): −0.51
Change from Baseline, mean: Steatosis (patients with NASH [1]; [7]): −0.55
% Change from Baseline ALT (patients with NASH [2]; [8]): −40.55%
% Change from Baseline AST (patients with NASH [2]; [8]): −27.95%
% Change from Baseline Alk Phos (patients with NASH [2]; [8]): −6.376%
% Change from Baseline GGT (patients with NASH [2]; [8]): −59.94%

CCCCC(=O)N(Cc1ccc(-c2ccccc2-c2nnn[nH]2)cc1)[C@H](C(=O)O)C(C)C [Valsartan]
Change from Baseline, mean: Ballooning (patients with NASH [1]; [9]): −0.11
Change from Baseline, mean: Fibrosis (patients with NASH [1]; [9]): −0.31
Change from Baseline, mean: Inflammation (patients with NASH [1]; [9]): 0.08
Change from Baseline, mean: Steatosis (patients with NASH [1]; [9]): −0.34
% Change from Baseline ALT (patients with NASH [2]; [10]): −23.22%
% Change from Baseline AST (patients with NASH [2]; [10]): −18.82%
% Change from Baseline GGT (patients with NASH [2]; [10]): −20.60%

COc1cccc(C(O)COc2ccc(CC3SC(=O)NC3=O)cc2)c1 (centres unmarked) [primary metabolite of MSDC-0602]
binding to the MPC (MPC): maintain, and in some cases improve
reduction in binding affinity for PPARγ compared to pioglitazone (PPARγ): more than fifty-fold
share of the combined exposure [3]: more than 90%

CC(C)c1cc(Oc2c(Cl)cc(-n3nc(C#N)c(=O)[nH]c3=O)cc2Cl)n[nH]c1=O [resmetiron, reference compound]
treatment effect on the surrogate endpoint (weighted average of changes in AST, CK-18, HbA1c) (patients with NASH [4]): largest treatment effects

Vitamin E
Change from Baseline, mean: Ballooning (patients with NASH [1]; PIVENS trial, Vitamin E): −0.30
Change from Baseline, mean: Fibrosis (patients with NASH [1]; PIVENS trial, Vitamin E): −0.30
Change from Baseline, mean: Inflammation (patients with NASH [1]; PIVENS trial, Vitamin E): −0.60
Change from Baseline, mean: Steatosis (patients with NASH [1]; PIVENS trial, Vitamin E): −0.70
NASH Resolution (patients with NASH [1]; PIVENS trial, Vitamin E): 30/84
% Change from Baseline ALT (patients with NASH [2]; [11]): −43.02%
% Change from Baseline AST (patients with NASH [2]; [11]): −36.10%
% Change from Baseline Alk Phos (patients with NASH [2]; [11]): −12.08%
% Change from Baseline GGT (patients with NASH [2]; [11]): −25.00%
% Change from Baseline Insulin (patients with NASH [2]; [11]): 2.73%
